pEC50: −log10 of the molar value.
Tests used:
[1] = target: T1, hTRPC3 (Homo sapiens, UniProt Q13507); experiment: TRP channel panel primary screen (membrane potential dye, stable HEK line); type: cell-based; settings: 0.3-300μM; effects over the micromolar range
T1 sequence (Q13507 1-921): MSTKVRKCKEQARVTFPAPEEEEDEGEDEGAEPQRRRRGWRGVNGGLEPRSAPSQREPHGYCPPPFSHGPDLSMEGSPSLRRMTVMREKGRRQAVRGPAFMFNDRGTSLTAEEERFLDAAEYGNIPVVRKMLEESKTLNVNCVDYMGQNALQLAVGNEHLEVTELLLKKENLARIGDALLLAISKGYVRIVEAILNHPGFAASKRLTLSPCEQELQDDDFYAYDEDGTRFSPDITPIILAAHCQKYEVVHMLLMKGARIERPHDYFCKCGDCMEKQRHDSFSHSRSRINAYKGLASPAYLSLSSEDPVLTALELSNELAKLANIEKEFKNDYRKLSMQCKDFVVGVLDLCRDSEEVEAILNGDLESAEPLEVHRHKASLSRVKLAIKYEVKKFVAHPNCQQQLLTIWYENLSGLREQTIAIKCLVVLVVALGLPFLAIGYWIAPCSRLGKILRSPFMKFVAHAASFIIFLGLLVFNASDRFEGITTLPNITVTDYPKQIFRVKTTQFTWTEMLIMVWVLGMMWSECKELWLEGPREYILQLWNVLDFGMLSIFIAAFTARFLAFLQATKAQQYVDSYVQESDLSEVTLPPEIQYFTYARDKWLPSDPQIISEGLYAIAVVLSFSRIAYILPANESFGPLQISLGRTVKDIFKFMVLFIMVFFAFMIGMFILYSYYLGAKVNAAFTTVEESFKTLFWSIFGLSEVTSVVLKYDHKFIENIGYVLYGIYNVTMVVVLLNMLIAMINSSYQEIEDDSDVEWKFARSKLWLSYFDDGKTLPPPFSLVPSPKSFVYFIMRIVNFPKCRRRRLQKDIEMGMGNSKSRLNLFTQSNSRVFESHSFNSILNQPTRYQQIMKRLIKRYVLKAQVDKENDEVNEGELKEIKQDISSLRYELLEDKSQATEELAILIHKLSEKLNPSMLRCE
Experimental: (§1) ±PZQ, (R)-PZQ and (S)-PZQ were screened against a panel of 17 human TRP channels (SB Drug Discovery, Glasgow). For all hTRPs, except for TRPM5, individual channel constructs were stably expressed in HEK cell lines. TRMP5 was expressed in a stable CHO cell line. In preparation for the assays, cells were trypsinized, counted and seeded (50,000 cells/well) in black, clear-bottomed 96 well plates and incubated overnight. The following day, cells were loaded with a fluorescent indicator (FLIPR Calcium 5 Assay kit for TRPA1, TRPV1, TRPV2, TRPV3, TRPV4, TRPV5, TRPC1, TRPM2, TRPM3 and TRPM8, or a membrane potential dye (FLIPR Membrane Potential Red Assay Kit for TRPC3, TRPC4, TRPC5, TRPC6, TRPC7, TRPM4 and TRPM5) prepared according to the manufacturer’s instructions in HEPES buffered Hank’s balanced salt solution (HBSS). Dye solution (10μl) was added to appropriate wells and incubated at 37°C for 1 hour. All assays were performed at room temperature. Compounds were tested at 0.3, 1, 3, 10, 30, 100μM and 300μM in triplicate in both agonist and antagonist mode to determine EC50 and IC50 values, which were compared with reference compounds. Compounds were screened at a final DMSO concentration of 0.5%. Plates were screened using a Flexstation (Molecular Devices, FX01138), monitoring fluorescence values every ~1.52 seconds. For ‘agonist mode’ testing, 10μl of the appropriate test compound, or standard agonist, was added after 20 seconds and fluorescence monitored for 2 minutes at λex = 485nm, λem = 525nm for Ca^2+ imaging and λex = 530nm, λem = 565nm for membrane potential measurements. For ‘antagonist mode’ testing, test compounds and standard inhibitors were added to appropriate wells and incubated for 10 minutes at room temperature prior to addition of standard agonist compound.

[2] = target: T2, hTRPC7 (Homo sapiens, UniProt Q9HCX4); experiment: as above; type: cell-based; settings: 0.3-300μM; effects over the micromolar range
T2 sequence (Q9HCX4 1-862): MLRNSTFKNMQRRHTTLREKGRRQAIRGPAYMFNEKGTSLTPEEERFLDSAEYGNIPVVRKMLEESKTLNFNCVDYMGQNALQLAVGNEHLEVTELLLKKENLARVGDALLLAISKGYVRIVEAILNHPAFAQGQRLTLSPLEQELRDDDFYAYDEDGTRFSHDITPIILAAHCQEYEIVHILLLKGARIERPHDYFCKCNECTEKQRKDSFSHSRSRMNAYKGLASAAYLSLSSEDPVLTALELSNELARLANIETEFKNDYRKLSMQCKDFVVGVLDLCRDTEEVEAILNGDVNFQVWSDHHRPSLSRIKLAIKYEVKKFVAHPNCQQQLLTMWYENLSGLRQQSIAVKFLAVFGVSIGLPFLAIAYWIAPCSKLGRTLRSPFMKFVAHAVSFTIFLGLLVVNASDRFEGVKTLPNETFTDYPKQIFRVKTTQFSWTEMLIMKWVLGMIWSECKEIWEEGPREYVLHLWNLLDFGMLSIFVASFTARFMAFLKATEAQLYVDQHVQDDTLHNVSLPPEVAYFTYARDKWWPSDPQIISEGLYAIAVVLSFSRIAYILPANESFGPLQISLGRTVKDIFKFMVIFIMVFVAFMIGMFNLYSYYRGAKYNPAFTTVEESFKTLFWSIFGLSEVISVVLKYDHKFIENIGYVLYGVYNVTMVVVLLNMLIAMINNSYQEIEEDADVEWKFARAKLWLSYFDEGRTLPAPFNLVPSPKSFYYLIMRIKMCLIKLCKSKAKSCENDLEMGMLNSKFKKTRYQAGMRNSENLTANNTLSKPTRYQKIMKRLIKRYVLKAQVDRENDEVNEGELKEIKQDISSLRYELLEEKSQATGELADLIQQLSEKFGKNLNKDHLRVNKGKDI
Experimental: as §1

[3] = system: TRPA1; design: method as in PMID 29054683; settings: ≤100μM; cited from earlier work
[4] = target: TRPV1 (Homo sapiens, UniProt Q8NER1); design: method as in PMID 29054683; settings: 100μM; cited from earlier work
Sequence of TRPV1 (Q8NER1 whole entry): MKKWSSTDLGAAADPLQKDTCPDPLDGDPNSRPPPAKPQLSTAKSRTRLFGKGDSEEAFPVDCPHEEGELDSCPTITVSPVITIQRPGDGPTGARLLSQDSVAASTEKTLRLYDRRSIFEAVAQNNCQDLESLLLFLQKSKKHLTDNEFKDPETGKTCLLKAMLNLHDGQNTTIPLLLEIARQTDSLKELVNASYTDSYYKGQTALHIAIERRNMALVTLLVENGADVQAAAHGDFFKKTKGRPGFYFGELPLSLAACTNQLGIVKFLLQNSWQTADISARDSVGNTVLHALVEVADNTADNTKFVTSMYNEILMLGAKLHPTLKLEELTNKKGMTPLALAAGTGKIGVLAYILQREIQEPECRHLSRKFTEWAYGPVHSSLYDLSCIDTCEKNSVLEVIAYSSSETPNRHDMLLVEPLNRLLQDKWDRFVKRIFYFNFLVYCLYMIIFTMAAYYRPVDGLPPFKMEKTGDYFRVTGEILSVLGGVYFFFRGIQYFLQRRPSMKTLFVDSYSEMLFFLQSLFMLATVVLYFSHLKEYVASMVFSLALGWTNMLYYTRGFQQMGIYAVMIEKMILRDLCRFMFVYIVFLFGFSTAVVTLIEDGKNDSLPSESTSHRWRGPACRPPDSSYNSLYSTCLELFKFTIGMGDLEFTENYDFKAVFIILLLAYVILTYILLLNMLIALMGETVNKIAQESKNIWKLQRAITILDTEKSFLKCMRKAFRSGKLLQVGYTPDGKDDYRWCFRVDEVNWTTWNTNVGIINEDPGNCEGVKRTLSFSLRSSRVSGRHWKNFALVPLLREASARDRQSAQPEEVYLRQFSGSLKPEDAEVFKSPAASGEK

[5] = target: hTRPM8 (Homo sapiens, UniProt Q7Z2W7); design: host or cells: HEK293 (ATCC CRL-1573.3), transient; method as in PMID 29054683; settings: by microfluorimetry; partial agonist; cited from earlier work
Sequence of hTRPM8 (Q7Z2W7 whole entry): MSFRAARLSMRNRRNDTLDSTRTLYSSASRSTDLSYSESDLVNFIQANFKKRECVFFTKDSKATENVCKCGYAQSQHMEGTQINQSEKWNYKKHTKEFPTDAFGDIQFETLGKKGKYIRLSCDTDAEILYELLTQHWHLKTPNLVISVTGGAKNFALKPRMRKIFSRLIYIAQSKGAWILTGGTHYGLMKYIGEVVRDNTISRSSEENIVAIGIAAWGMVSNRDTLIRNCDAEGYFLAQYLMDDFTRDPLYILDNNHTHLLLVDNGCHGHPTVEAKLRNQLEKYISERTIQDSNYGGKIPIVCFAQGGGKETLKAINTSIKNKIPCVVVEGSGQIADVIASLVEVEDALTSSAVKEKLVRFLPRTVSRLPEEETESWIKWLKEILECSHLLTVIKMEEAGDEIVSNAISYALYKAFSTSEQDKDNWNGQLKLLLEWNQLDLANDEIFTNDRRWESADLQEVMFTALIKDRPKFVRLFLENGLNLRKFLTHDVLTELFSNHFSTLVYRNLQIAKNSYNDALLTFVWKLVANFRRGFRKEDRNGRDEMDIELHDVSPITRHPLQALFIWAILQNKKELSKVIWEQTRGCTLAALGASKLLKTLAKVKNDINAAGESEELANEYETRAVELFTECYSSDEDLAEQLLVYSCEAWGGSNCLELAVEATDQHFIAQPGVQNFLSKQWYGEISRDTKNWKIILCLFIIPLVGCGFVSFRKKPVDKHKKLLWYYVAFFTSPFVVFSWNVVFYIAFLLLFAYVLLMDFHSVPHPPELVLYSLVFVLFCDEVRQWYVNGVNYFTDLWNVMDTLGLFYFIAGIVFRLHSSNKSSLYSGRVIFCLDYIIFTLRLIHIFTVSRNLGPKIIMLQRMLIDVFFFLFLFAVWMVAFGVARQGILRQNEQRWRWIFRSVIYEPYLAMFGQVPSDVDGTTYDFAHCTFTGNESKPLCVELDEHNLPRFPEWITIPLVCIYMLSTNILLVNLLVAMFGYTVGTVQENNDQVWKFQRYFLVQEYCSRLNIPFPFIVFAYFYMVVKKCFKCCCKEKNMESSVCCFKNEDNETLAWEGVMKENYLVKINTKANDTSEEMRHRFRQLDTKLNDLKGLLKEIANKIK

[6] = system: mouse mesenteric arteries; experiment: Wire myography, mesenteric artery strips at resting (basal) tone; settings: 100μM added at basal tone

SMILES | activity at hTRPC3 in primary screen [1] | activity at hTRPC7 in primary screen [2] | activity against TRPA1 [3] | activation of TRPV1 [4] | pEC50 [5] | change of tension at resting tone [6]
O=C(C1CCCCC1)N1CC(=O)N2CCc3ccccc3[C@H]2C1 [(S)-PZQ] | activated | activated | – | – | – | –
O=C(C1CCCCC1)N1CC(=O)N2CCc3ccccc3C2C1 (racemic) [±PZQ, praziquantel] | displayed activity | displayed activity | lack of activity | low potency activation | ~4.60 | marked contraction
